Source: PubChem BioAssay AID488958 (The Scripps Research Institute Molecular Screening Center, 2010)
Active and inactive are the calls of the source. How the calls were made is not given here.

Target: 3C-like protease (Infectious bronchitis virus, as filed; assay for SARS-CoV 3CLpro)
Assay: potency of SARS-CoV 3CLpro inhibitors, late-stage follow-up, biochemical, fluorescence, dose response (AID 488958)
Conditions: recombinant 3CLpro, fluorogenic peptide cleavage

| SMILES | IC50 |
| --- | --- |
| CC(C)(C)NC(=O)C(c1cccnc1)N(C(=O)c1ncco1)c1ccc(C(C)(C)C)cc1 (stereo unspecified) | inactive |
| CC(=O)Nc1ccc(N(C(=O)Cn2nnc3ccccc32)C(C(=O)NCc2ccccc2)c2cccc(F)c2)cc1 (stereo unspecified) | 2.9 µM |
| CC(C)(C)NC(=O)C(c1cncnc1)N(C(=O)c1cnc[nH]1)c1ccc(C(C)(C)C)cc1 (stereo unspecified) | inactive |
| CC(C)(C)NC(=O)C(c1cccnc1)N(C(=O)c1ccc(Cl)o1)c1ccc(C(C)(C)C)cc1 (stereo unspecified) | 5.2 µM |
| CCC(C)c1ccc(N(C(=O)c2ccco2)[C@H](C(=O)NC(C)(C)C)c2cccnc2)cc1 (stereo partly specified) | 2.3 µM |
| CC(=O)Nc1ccc(N(C(=O)Cn2nnc3ccccc32)C(C(=O)NC(C)(C)C)c2cccc(F)c2)cc1 (stereo unspecified) | 6.3 µM |
